Measured values: patent US20250236616A1, “IMMUNOMODULATING AZALIDES” (Zoetis Services LLC, priority 2021, published 2025)
Like-named read-outs stand apart in the source and are kept apart here. Marks after values point to notes of the source that are not given here.

Legend:
Assay type in all cases: cell-based
[1] = tested on: BRD pathogens, M. haemolytica and P. multocida; experiment: MIC screening panel, BRD pathogens (CLSI broth micro-dilution)
Text: Primary screening of the compounds of the invention included the evaluation of antibacterial activity of analogs through determination of microbial inhibition concentration (MIC) as per CLSI guidelines. The screening panel included the relevant BRD pathogens: 1) M. haemolytica (e.g., 12726, 46571 and 49023, all AHDRCC; and 33396 (ATCC)); and 2) P. multocida (e.g., 34135 and 46572 (both AHDRCC) and 43137 (ATCC)). In some instances, H. somni (A700025K) pathogens were also included in the screening panel. The AHDRCC strains originated from the Zoetis BRD/SRD surveillance program and refer to the Animal Health Development and Research Culture Collection. In addition, the screen assessed S. aureus (29213 ATCC) as a representative Gram-positive isolate, E.faecalis (19433 ATCC) as a commensal gram-positive gastrointestinal bacterium and E. coli (100, 3110 and 25922 (ATCC)) for the evaluation of efflux potential. The screening panel BRD pathogens were assessed in determining antibacterial activity of the Formula (1) compounds.
All relevant BRD pathogens were initially screened at a top concentration of 64 μg/mL of a Formula (1) compound in an eleven-point dilution series. […] If an Example was purified further, the MICs moved […] essentially two dilutions across all strains tested in the screening panel.
In-Vitro MIC Model Compounds were analyzed for antibacterial activity against a panel of animal health specific gram-positive and gram-negative clinical strains by diluting compounds in DMSO to an appropriate stock concentration to determine the Minimal Inhibitory Concentration (MIC) via a semi-automated broth micro-dilution method (CLSI reference method) with QC strains and anti-microbial agent(s). Specifically, bacteria were grown overnight on TSA w/5% sheep blood agar plates and diluted in saline buffer to a McFarland Standard 0.5, then further diluted in cation-ion adjusted Mueller Hinton Broth to a final concentration of approximately 5×10^5 CFU/mL. 100 μL of inoculated media was added to 96-well plate(s) with 3 μL of serially diluted compound in each row. Depending on strain (see CLSI reference method), bacteria were incubated 18-22 hours at 35-37° C. in ambient air, with 5% CO2 or anaerobically (up to 48 hours).

TNF-α = experiment: Whole bovine blood assay, LPS-induced TNF-α; settings: fresh whole bovine blood, LPS stimulant, top drug concentration 250 μM
Outline: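 Fresh heparinized bovine whole blood was preincubated with compound 4 h at 37 °C, then stimulated with LPS (final 1 μg/mL) for 18 h at 37 °C. Plasma TNF-α was quantified by MSD U-Plex chemiluminescent immunoassay, normalized to total protein (BCA), and IC50 taken for LPS-induced TNF-α inhibition.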

IL-1β = experiment: Whole bovine blood assay, LPS-induced IL-1β (inhibition / overstimulation); settings: drug concentration giving overstimulation (OS) of LPS-induced IL-1β, top concentration 250 μM
Outline: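 Fresh heparinized bovine whole blood was preincubated with compound at varying concentrations for 4 h at 37 °C, then stimulated with 1 μg/mL LPS for 18 h. Plasma IL-1β was measured by MSD chemiluminescent immunoassay and normalized to total protein. Values cover inhibition and concentration-dependent overstimulation.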

IL-6 = experiment: Whole bovine blood assay, LPS-induced IL-6; settings: fresh whole bovine blood, LPS stimulant, top drug concentration 250 μM
[2] = Table C, at least one BRD pathogenic strain, top concentration 64 μg/mL

## CC[C@H]1OC(=O)[C@H](C)[C@@H](OC2CC(C)(OC)C(O)(CN3CCCCC3)[C@@H](C)O2)[C@H](C)[C@@H](O[C@@H]2O[C@H](C)C[C@H](N(C)S(=O)(=O)c3ccc(Cl)cc3)[C@H]2O)[C@](C)(O)C[C@@H](C)CN(C)[C@H](C)[C@@H](O)[C@]1(C)O (stereo partly drawn) [Example C-38, 4-chloro-N-((2S,3R,4S,6R)-2-(((2R,3S,4R,5R,8R,10R,11R,12S,13S,14R)-2-ethyl-3,4,10-trihydroxy-13-(((6R)-5-hydroxy-4-methoxy-4,6-dimethyl-5-(piperidin-1-ylmethyl)tetrahydro-2H-pyran-2-yl)oxy)-3,5,6,8, 10, 12, 14-heptamethyl-15-oxo-1-oxa-6-azacyclopentadecan-11-yl)oxy)-3-hydroxy-6-methyltetrahydro-2H-pyran-4-yl)-N-methylbenzenesulfonamide]
[1]; Table C, at least one BRD pathogenic strain, top concentration 64 μg/mL, read-out: MIC flag (*) for BRD pathogenic strains
  MIC: ≤ 64 µg/mL
TNF-α; Bos taurus
  IC50: 9 µM
IL-1β; Bos taurus, 18 h
  minimal effective concentration: 28 µM
IL-6; Bos taurus
  IC50: 4 µM

## CC[C@H]1OC(=O)[C@H](C)[C@@H](O)[C@H](C)[C@@H](O[C@@H]2O[C@H](C)C[C@H](N(C)S(=O)(=O)c3scnc3C)[C@H]2Oc2ccc(F)cc2)[C@](C)(O)C[C@@H](C)CN[C@H](C)[C@@H](O)[C@]1(C)O [Example A-26]
[1]; Table A, at least one BRD pathogenic strain, top concentration 64 μg/mL
  MIC flag (*) for BRD pathogenic strains: A-26* (MIC ≤64 μg/mL for at least one BRD pathogenic strain)
TNF-α
  IC50: 130 µM
IL-1β
  minimal effective concentration: 16 µM
IL-6
  IC50: 49 µM

## (2R,3S,4R,5R,8R,10R,11R, 12S, 13S, 14R)-2-ethyl-11-[(2R,3S,4R,6S)-4-[(3-fluorophenyl) sulfamoyl-methylamino]-3-hydroxy-6-methyloxan-2-yl]oxy-3,4, 10-trihydroxy-13-[(2R,4R,5S,6S)-5-hydroxy-4-methoxy-4,6-dimethyl-5-(piperidin-1-ylmethyl)-oxan-2-yl]oxy-3,5,8,10, 12,14-hexamethyl-15-oxo-1-oxa-6-azacyclopentadecane [Example C-24]
[1]; [2]
  MIC flag (*) for BRD pathogenic strains: C-24* (MIC ≤64 μg/mL for at least one BRD pathogenic strain)
TNF-α
  IC50: 16 µM
IL-1β
  minimal effective concentration: 3 µM
IL-6
  IC50: 25 µM

## CC(=O)O.CCCN1C[C@H](C)C[C@@](C)(O)[C@H](O[C@@H]2O[C@H](C)C[C@H](N(C)S(=O)(=O)Nc3ccc(C(F)(F)F)cc3)[C@H]2O)[C@@H](C)[C@H](O[C@H]2C[C@@](C)(OC)[C@](O)(CN3CCCCC3)[C@H](C)O2)[C@@H](C)C(=O)O[C@H](CC)[C@@](C)(O)[C@H](O)[C@H]1C [Example C-58, (2R,3S,4R,5R,8R,10R,11R,12S,13S,14R)-2-ethyl-3,4,10-trihydroxy-13-[(2R,4R,5S,6S)-5-hydroxy-4-methoxy-4,6-dimethyl-5-(piperidin-1-ylmethyl)oxan-2-yl]oxy-11-[(2S,3R,4S,6R)-3-hydroxy-6-methyl-4-[methyl-[[4-(trifluoromethyl)phenyl]sulfamoyl]amino]oxan-2-yl]oxy-3,5,8, 10, 12,14-hexamethyl-15-oxo-6-propyl-1-oxa-6-azacyclopentadecane, acetic acid]
[1]; [2]
  MIC flag (*) for BRD pathogenic strains: C-58* (MIC ≤64 μg/mL for at least one BRD pathogenic strain)
TNF-α
  IC50: 9 µM
IL-1β
  minimal effective concentration: 12 µM
IL-6
  IC50: 13 µM

## CC[C@H]1OC(=O)[C@H](C)[C@@H](O[C@H]2C[C@@](C)(OC)[C@](O)(CCl)[C@H](C)O2)[C@H](C)[C@@H](O[C@@H]2O[C@H](C)C[C@H](N(C)S(=O)(=O)c3ccc(Cl)cc3)[C@H]2O)[C@](C)(O)C[C@@H](C)CN[C@H](C)[C@@H](O)[C@]1(C)O [Example A4-1, 4-chloro-N-((2S,3R,4S,6R)-2-(((2R,3S,4R,5R,8R,10R,11R,12S,13S,14R)-13-(((2R,4R,5S,6S)-5-(chloromethyl)-5-hydroxy-4-methoxy-4,6-dimethyltetrahydro-2H-pyran-2-yl)oxy)-2-ethyl-3,4,10-trihydroxy-3,5,8,10,12,14-hexamethyl-15-oxo-1-oxa-6-azacyclopentadecan-11-yl)oxy)-3-hydroxy-6-methyltetrahydro-2H-pyran-4-yl)-N-methylbenzenesulfonamide]
[1]; BRD pathogens M. haemolytica and P. multocida, read-out: antibacterial / non-antibacterial (MIC class)
  MIC: > 64 µg/mL
TNF-α; Bos taurus
  IC50: 44 µM
IL-1β; Bos taurus, 18 h
  minimal effective concentration: 12 µM
IL-6; Bos taurus
  IC50: 26 µM
